{"source": "ChEMBL document CHEMBL1201862", "about": "“PubChem BioAssay data set” (2004)", "assay_in_all_cases": "inhibition of tumour cell growth, NCI panel, 48 h", "key": {"786-0": {"system": "786-0"}, "A498": {"system": "A498"}, "A549": {"system": "A549"}, "ACHN": {"system": "ACHN"}, "CAKI-1": {"system": "CAKI-1"}, "CCRF-CEM": {"system": "CCRF-CEM"}, "COLO 205": {"system": "COLO 205"}, "DLD-1": {"system": "DLD-1"}, "DMS-114": {"system": "DMS-114"}, "DMS-273": {"system": "DMS-273"}, "EKVX": {"system": "EKVX"}, "HCC 2998": {"system": "HCC 2998"}, "HCT-116": {"system": "HCT-116"}, "HCT-15": {"system": "HCT-15"}, "HL-60": {"system": "HL-60"}, "HOP-18": {"system": "HOP-18"}, "HOP-62": {"system": "HOP-62"}, "HOP-92": {"system": "HOP-92"}, "HT-29": {"system": "HT-29"}, "IGROV-1": {"system": "IGROV-1"}, "K562": {"system": "K562"}, "KM-20L2": {"system": "KM-20L2"}, "KM12": {"system": "KM12"}, "LOX IMVI": {"system": "LOX IMVI"}, "LXFL 529": {"system": "LXFL 529"}, "M14": {"system": "M14"}, "M19-MEL": {"system": "M19-MEL"}, "MOLT-4": {"system": "MOLT-4"}, "Malme-3M": {"system": "Malme-3M"}, "NCI-H226": {"system": "NCI-H226"}, "NCI-H23": {"system": "NCI-H23"}, "NCI-H460": {"system": "NCI-H460"}, "NCI-H522": {"system": "NCI-H522"}, "OVCAR-3": {"system": "OVCAR-3"}, "OVCAR-4": {"system": "OVCAR-4"}, "OVCAR-5": {"system": "OVCAR-5"}, "OVCAR-8": {"system": "OVCAR-8"}, "RPMI-8226": {"system": "RPMI-8226"}, "RXF 393": {"system": "RXF 393"}, "SF-268": {"system": "SF-268"}, "SF-295": {"system": "SF-295"}, "SF-539": {"system": "SF-539"}, "SK-MEL-28": {"system": "SK-MEL-28"}, "SK-MEL-2": {"system": "SK-MEL-2"}, "SK-MEL-5": {"system": "SK-MEL-5"}, "SK-OV-3": {"system": "SK-OV-3"}, "SN12C": {"system": "SN12C"}, "SNB-19": {"system": "SNB-19"}, "SNB-75": {"system": "SNB-75"}, "SW-620": {"system": "SW-620"}, "TK-10": {"system": "TK-10"}, "U-251": {"system": "U-251"}, "UACC-62": {"system": "UACC-62"}, "XF498": {"system": "XF498"}}, "note": "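Where inhibition never reached the appropriate level, the endpoint shown equals the highest concentration tested. Otherwise, values were interpolated linearly from a five-concentration, 48-hour dose response in 96-well plates. Here, GI50 denotes the concentration required for 50% inhibition of growth.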 The source made the active and inactive calls. No stated cut-off is given here; in the data, active = GI50 up to about 1.1 µM and inactive = higher.", "data": [{"smiles": "COc1ccc(OC)c(/C=C2\\CCc3ccccc3C2=O)c1", "values": [{"measurement": "GI50", "setting": "786-0", "result": "3.03 µM (inactive)"}, {"measurement": "GI50", "setting": "A498", "result": "2.61 µM (inactive)"}, {"measurement": "GI50", "setting": "A549", "result": "2.25 µM (inactive)"}, {"measurement": "GI50", "setting": "ACHN", "result": "7.26 µM (inactive)"}, {"measurement": "GI50", "setting": "CAKI-1", "result": "4.65 µM (inactive)"}, {"measurement": "GI50", "setting": "CCRF-CEM", "result": "2.33 µM (inactive)"}, {"measurement": "GI50", "setting": "COLO 205", "result": "3.18 µM (inactive)"}, {"measurement": "GI50", "setting": "DLD-1", "result": "5.36 µM (inactive)"}, {"measurement": "GI50", "setting": "DMS-114", "result": "1.92 µM (inactive)"}, {"measurement": "GI50", "setting": "DMS-273", "result": "1.12 µM (active)"}, {"measurement": "GI50", "setting": "EKVX", "result": "3.2 µM (inactive)"}, {"measurement": "GI50", "setting": "HCC 2998", "result": "2 µM (inactive)"}, {"measurement": "GI50", "setting": "HCT-116", "result": "6.78 µM (inactive)"}, {"measurement": "GI50", "setting": "HCT-15", "result": 3.91, "unit": "µM"}, {"measurement": "GI50", "setting": "HL-60", "result": "1.68 µM (inactive)"}, {"measurement": "GI50", "setting": "HOP-18", "result": "4.85 µM (inactive)"}, {"measurement": "GI50", "setting": "HOP-62", "result": "2.47 µM (inactive)"}, {"measurement": "GI50", "setting": "HOP-92", "result": "1.23 µM (inactive)"}, {"measurement": "GI50", "setting": "HT-29", "result": "0.735 µM (active)"}, {"measurement": "GI50", "setting": "IGROV-1", "result": "11.4 µM (inactive)"}, {"measurement": "GI50", "setting": "K562", "result": "0.391 µM (active)"}, {"measurement": "GI50", "setting": "KM-20L2", "result": "2.9 µM (inactive)"}, {"measurement": "GI50", "setting": "KM12", "result": "3.05 µM (inactive)"}, {"measurement": "GI50", "setting": "LOX IMVI", "result": "4.26 µM (inactive)"}, {"measurement": "GI50", "setting": "LXFL 529", "result": "6.05 µM (inactive)"}, {"measurement": "GI50", "setting": "M14", "result": "3.59 µM (inactive)"}, {"measurement": "GI50", "setting": "M19-MEL", "result": "3.72 µM (inactive)"}, {"measurement": "GI50", "setting": "MOLT-4", "result": "2.59 µM (inactive)"}, {"measurement": "GI50", "setting": "Malme-3M", "result": "3.72 µM (inactive)"}, {"measurement": "GI50", "setting": "NCI-H226", "result": "3.72 µM (inactive)"}, {"measurement": "GI50", "setting": "NCI-H23", "result": "3.39 µM (inactive)"}, {"measurement": "GI50", "setting": "NCI-H460", "result": "3.44 µM (inactive)"}, {"measurement": "GI50", "setting": "NCI-H522", "result": "1.77 µM (inactive)"}, {"measurement": "GI50", "setting": "OVCAR-3", "result": "2.71 µM (inactive)"}, {"measurement": "GI50", "setting": "OVCAR-4", "result": "6.52 µM (inactive)"}, {"measurement": "GI50", "setting": "OVCAR-5", "result": "4.14 µM (inactive)"}, {"measurement": "GI50", "setting": "OVCAR-8", "result": "4.16 µM (inactive)"}, {"measurement": "GI50", "setting": "RPMI-8226", "result": "3.6 µM (inactive)"}, {"measurement": "GI50", "setting": "RXF 393", "result": "1.76 µM (inactive)"}, {"measurement": "GI50", "setting": "SF-268", "result": "4.84 µM (inactive)"}, {"measurement": "GI50", "setting": "SF-295", "result": "3.35 µM (inactive)"}, {"measurement": "GI50", "setting": "SF-539", "result": "2.6 µM (inactive)"}, {"measurement": "GI50", "setting": "SK-MEL-28", "result": "5.12 µM (inactive)"}, {"measurement": "GI50", "setting": "SK-MEL-2", "result": "2.93 µM (inactive)"}, {"measurement": "GI50", "setting": "SK-MEL-5", "result": "3.17 µM (inactive)"}, {"measurement": "GI50", "setting": "SK-OV-3", "result": "2.58 µM (inactive)"}, {"measurement": "GI50", "setting": "SN12C", "result": "5.48 µM (inactive)"}, {"measurement": "GI50", "setting": "SNB-19", "result": "5.6 µM (inactive)"}, {"measurement": "GI50", "setting": "SNB-75", "result": "1.1 µM (active)"}, {"measurement": "GI50", "setting": "SW-620", "result": "1.12 µM (active)"}, {"measurement": "GI50", "setting": "TK-10", "result": "5.16 µM (inactive)"}, {"measurement": "GI50", "setting": "U-251", "result": "3.3 µM (inactive)"}, {"measurement": "GI50", "setting": "UACC-62", "result": "1.76 µM (inactive)"}, {"measurement": "GI50", "setting": "XF498", "result": "1.24 µM (inactive)"}]}]}
